In ChEMBL document CHEMBL4732117, “Small Molecule Approaches for Targeting the Polycomb Repressive Complex 2 (PRC2) in Cancer” (J Med Chem, 2020):
One block for each compound: values may come before it. Where a SMILES comes first, the peptide text is derived from it. [ ]: non-standard residue; d: D form. Lys(Me3) = C[N+](C)(C)CCCC[C@H](N)C(=O)O

Experiments:
[1] = biological target: T1, Histone-lysine N-methyltransferase EZH2 (Homo sapiens, UniProt Q15910); assay: Inhibition of EZH2 in PRC2 complex (unknown origin) expressed in Sf9 cells using histone H3 (21 to 44)-lys (biotin) and SAM as substrate incubated for 90 mins by radiometric scintillation proximity assay
Polycomb protein EED [2] = biological target: T2, Polycomb protein EED (Homo sapiens, UniProt O75530); assay: Binding affinity to EED (unknown origin) by TR-FRET based binding assay
[3] = Plasma concentration in Swiss albino mouse at 50 mg/kg, ip measured up to 24 hrs by LC-MS/MS analysis; assay type: ADME, organism-based
[4] = biological target: T1, Histone-lysine N-methyltransferase EZH2; assay: Inhibition of wild type EZH2 in human PRC2 complex using S-adenosylmethionine and biotinylated histone peptides as substrate
[5] = Drug concentration in cytoplasm of human G401 cells assessed per million cells at 10 uM incubated for 2 hrs by UPLC-MS analysis; assay type: ADME, subcellular; conditions: g-401, 2 h
Polycomb protein EED [6] = biological target: T2, Polycomb protein EED; assay: Binding affinity to human N-terminal His6-tagged/thrombin cleavage site fused/ AVI-tagged EED (1 to 441 residues) expressed in Escherichia coli BL21(DE3) cells by surface plasmon resonance method
KARPAS-422 = assay: Antiproliferative activity against human Karpas422 cells after 14 days by celltiter-glo luminescent cell viability assay; assay type: functional; conditions: KARPAS-422, 336 h, time 14 day
[7] = Drug concentration in nucleus of human G401 cells assessed per million cells at 10 uM incubated for 2 hrs by UPLC-MS analysis; assay type: ADME, subcellular; conditions: g-401, 2 h
Polycomb protein EED [8] = biological target: T2, Polycomb protein EED; assay: Displacement of OG(488) labeled probe from GST-tagged EED (unknown origin) incubated for 1 hr by lanthaScreen TR-FRET method
Polycomb protein EED [9] = biological target: T2, Polycomb protein EED; assay: Displacement of UNC5114-biotin tracer ligand from N-terminal 6His-tagged EED (1 to 441 residues) (unknown origin) expressed in Escherichia coli Rosetta2 BL21(DE3)pLysS cells measured after 1 hr by TR-FRET analysis
[10] = Plasma concentration in mouse xenografted with human Karpas-422 cells at 40 mg/kg, po; assay type: ADME, organism-based; conditions: in vivo
Polycomb protein EED [11] = biological target: T2, Polycomb protein EED; assay: Binding affinity to EED in PRC2 complex (unknown origin) using H3K27me0 (21 to 44 residue) peptide as substrate by LC-MS analysis
[12] = biological target: von Hippel-Lindau disease tumor suppressor/Polycomb protein EED (Homo sapiens) (UniProt O75530+P40337); assay: Induction of VHL-mediated EED degradation in human HeLa cells at 5 uM incubated for 24 hrs by Western blot analysis relative to control; assay type: cell-based
[13] = Time at which plasma concentration stays above cellular IC50 for inhibition of EZH2 in Swiss albino mouse at 50 mg/kg, PO; assay type: organism-based; conditions: in vivo
[14] = Time at which plasma concentration stays above cellular IC50 for inhibition of EZH2 in Swiss albino mouse at 15 mg/kg, ip; assay type: organism-based; conditions: in vivo
[15] = biological target: T1, Histone-lysine N-methyltransferase EZH2; assay: Inhibition of EZH2 in PRC2 complex (unknown origin) using biotinylated peptide as substrate in presence of S-adenosylmethionine
[16] = Time at which plasma concentration stays above cellular IC50 for inhibition of EZH2 in Swiss albino mouse at 50 to 150 mg/kg, ip; assay type: organism-based; conditions: in vivo, dose 50-150 mg/kg
[17] = Cmax in Swiss albino mouse at 150 mg/kg, ip measured after 0.08 to 24 hrs; assay type: ADME, organism-based; parameters: route intraperitoneal, time 0.08-24 hrs, dose 150 mg/kg; conditions: in vivo
CT26 = assay: Antitumor activity against mouse CT26 cells implanted in NOD/SCID mouse assessed as tumor growth inhibition at 30 mg/kg, PO relative to control; assay type: functional; conditions: read-out: TGI
[18] = biological target: T3, Histone-lysine N-methyltransferase EZH1 (Homo sapiens, UniProt Q92800); assay: Inhibition of EZH1 in PRC2 complex (unknown origin) using biotinylated peptide as substrate in presence of S-adenosylmethionine
T3 sequence (Q92800 whole entry): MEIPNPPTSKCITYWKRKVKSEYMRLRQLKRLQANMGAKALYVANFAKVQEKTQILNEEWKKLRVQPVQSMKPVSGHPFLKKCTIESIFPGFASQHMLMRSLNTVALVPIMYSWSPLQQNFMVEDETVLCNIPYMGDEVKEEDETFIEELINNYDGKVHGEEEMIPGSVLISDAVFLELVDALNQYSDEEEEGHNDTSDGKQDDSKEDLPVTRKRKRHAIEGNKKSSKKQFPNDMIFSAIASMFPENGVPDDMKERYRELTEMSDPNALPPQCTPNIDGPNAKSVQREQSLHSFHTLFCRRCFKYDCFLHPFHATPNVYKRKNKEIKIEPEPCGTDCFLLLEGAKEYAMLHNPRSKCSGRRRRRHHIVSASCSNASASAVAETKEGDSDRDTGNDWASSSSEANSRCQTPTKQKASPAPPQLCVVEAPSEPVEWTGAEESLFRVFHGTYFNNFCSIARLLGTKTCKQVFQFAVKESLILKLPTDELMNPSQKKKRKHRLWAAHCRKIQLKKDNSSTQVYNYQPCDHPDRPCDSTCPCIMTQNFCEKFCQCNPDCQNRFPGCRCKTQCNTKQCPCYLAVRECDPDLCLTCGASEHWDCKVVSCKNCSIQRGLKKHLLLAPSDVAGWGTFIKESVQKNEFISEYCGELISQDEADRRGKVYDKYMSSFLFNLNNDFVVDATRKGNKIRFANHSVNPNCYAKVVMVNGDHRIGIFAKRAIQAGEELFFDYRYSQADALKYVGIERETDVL

[19] = Plasma concentration in SCID mouse xenografted with human G-401 cells at 125 mg/kg, po BID administered for 21 days and measured at 3 hrs post dose on day 21 by LC-MS/MS analysis; assay type: ADME, organism-based; conditions: time 21 day
Polycomb protein EED [20] = biological target: T2, Polycomb protein EED; assay: Displacement of 3-FAM from N-terminal 6His-tagged full length EED (unknown origin) expressed in Escherichia coli Rosetta2 BL21(DE3)pLysS incubated for 30 mins by fluorescence polarization assay

T2 sequence (O75530 whole entry): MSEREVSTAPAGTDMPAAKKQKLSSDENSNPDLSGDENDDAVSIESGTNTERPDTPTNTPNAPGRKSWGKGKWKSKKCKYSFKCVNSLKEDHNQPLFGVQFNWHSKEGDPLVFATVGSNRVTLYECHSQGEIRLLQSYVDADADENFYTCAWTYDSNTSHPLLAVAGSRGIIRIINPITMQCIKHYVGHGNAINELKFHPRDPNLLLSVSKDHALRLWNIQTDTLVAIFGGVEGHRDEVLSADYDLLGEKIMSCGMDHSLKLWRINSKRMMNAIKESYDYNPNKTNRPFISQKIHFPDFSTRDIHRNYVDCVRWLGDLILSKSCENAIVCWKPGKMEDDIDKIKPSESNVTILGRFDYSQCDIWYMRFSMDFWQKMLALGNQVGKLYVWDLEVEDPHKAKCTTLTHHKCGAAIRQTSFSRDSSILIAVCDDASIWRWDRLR
T1 sequence (Q15910 whole entry): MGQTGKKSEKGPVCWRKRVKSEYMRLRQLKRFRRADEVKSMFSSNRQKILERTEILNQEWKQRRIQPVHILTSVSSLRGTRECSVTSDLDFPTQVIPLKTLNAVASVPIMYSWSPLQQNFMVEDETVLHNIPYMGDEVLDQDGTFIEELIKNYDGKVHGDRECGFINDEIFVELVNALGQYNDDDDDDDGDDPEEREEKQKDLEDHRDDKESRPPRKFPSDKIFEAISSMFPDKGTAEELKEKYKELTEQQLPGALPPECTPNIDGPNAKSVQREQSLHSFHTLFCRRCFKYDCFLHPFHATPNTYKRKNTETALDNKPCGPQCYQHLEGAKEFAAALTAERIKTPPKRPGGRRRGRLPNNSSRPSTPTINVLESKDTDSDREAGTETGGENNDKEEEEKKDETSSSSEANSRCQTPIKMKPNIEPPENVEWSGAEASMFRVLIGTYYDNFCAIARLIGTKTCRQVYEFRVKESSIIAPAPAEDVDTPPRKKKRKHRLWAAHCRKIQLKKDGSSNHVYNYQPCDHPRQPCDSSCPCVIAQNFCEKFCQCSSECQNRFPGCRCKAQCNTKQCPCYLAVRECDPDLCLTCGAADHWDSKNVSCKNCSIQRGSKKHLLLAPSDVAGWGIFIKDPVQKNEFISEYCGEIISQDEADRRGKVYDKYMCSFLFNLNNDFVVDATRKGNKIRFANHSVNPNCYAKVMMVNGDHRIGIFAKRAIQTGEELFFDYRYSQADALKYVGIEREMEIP
Chain of von Hippel-Lindau disease tumor suppressor/Polycomb protein EED (Homo sapiens) (O75530 2-441 limits assumed): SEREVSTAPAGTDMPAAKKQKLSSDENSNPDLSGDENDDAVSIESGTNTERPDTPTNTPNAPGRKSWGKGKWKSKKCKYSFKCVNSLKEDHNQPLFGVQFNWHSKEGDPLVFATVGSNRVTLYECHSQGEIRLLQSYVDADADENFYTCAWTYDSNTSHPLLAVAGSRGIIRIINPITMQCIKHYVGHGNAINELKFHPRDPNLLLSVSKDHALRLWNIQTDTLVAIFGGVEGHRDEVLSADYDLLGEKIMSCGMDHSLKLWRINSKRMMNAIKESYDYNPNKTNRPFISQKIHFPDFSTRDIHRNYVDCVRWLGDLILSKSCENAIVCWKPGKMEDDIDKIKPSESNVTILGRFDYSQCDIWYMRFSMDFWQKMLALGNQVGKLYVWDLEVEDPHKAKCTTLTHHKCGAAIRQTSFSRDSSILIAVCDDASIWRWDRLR
Chain of von Hippel-Lindau disease tumor suppressor/Polycomb protein EED (Homo sapiens) (P40337 whole entry partner): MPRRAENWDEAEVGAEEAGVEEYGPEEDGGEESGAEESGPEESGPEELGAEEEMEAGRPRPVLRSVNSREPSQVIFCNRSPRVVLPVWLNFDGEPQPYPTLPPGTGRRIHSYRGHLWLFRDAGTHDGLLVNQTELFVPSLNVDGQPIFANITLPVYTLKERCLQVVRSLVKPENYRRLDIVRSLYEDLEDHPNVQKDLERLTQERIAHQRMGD

- IC50 [1]: 0.011 µM
Structure (SMILES): CCCc1cc(C)[nH]c(=O)c1CNC(=O)c1cc(-c2ccc(N3CCN(C)CC3)nc2)nc2c1cnn2C(C)C

- Ki (Polycomb protein EED [2]): 0.011 µM
Structure (SMILES): CN(C)[C@H]1CN(C2CCc3cccc(F)c32)C[C@@H]1c1cn(C)c2ccccc12 (stereo not given in full)

- concentration at 24 h [3]: > 1 µM
Structure (SMILES): Cc1cc(C)c(CNC(=O)c2cc(-c3ccc(N4CCN(CCNC(=O)CC56CC7CC(CC(C7)C5)C6)CC4)nc3)cc3c2cnn3C(C)C)c(=O)[nH]1

- Ki [4]: 0.31 µM
Structure (SMILES): Cc1cc(C)c(CNC(=O)c2cc(-c3ccc4c(c3)OCCO4)nc3c2cnn3C(C)C)c(=O)[nH]1

Structure (SMILES): Cc1nc(CCC(=O)NCCOc2ccc(OCC(=O)N[C@H](C(=O)N3C[C@H](O)C[C@H]3C(=O)NCc3ccc(-c4scnc4C)cc3)C(C)(C)C)cc2)ccc1-c1cnc(NCc2c(F)ccc3c2CCO3)n2cnnc12
- Drug uptake [5]: 4.69 pmol
- Kd (Polycomb protein EED [6]): < 0.001 µM
- GI50 (KARPAS-422): 0.045 µM
- Drug uptake [7]: 37.2 pmol

- Ki (Polycomb protein EED [8]): 1.83 µM
Structure (SMILES): CN(C)[C@H]1CN(Cc2ccccc2)C[C@@H]1c1ccc(N2CCN(S(C)(=O)=O)CC2)cc1

- Ki [4]: 0.08 µM
Structure (SMILES): Cc1cc(C)c(CNC(=O)c2cc(-c3ccc(CN4CCOCC4)cc3)cc3c2cnn3C(C)C)c(=O)[nH]1

Structure (SMILES): Cc1nc(CCC(=O)NCCCCC(=O)N[C@H](C(=O)N2C[C@H](O)C[C@H]2C(=O)NCc2ccc(-c3scnc3C)cc2)C(C)(C)C)ccc1-c1cnc(NCc2c(F)ccc3c2CCO3)n2cnnc12
- Drug uptake [5]: 0.03 pmol
- Kd (Polycomb protein EED [6]): < 0.001 µM
- GI50 (KARPAS-422): 0.057 µM
- Drug uptake [7]: 0.79 pmol

Structure (SMILES): CS(=O)(=O)c1ccc(-c2cnc(NCc3ccco3)n3cnnc23)cc1
- IC50 (Polycomb protein EED [9]): 0.045 µM
- concentration [10]: > 30 µM
- IC50 (Polycomb protein EED [11]): 0.0234 µM

- Activity [12]: 80%
Structure (SMILES): Cc1ncsc1-c1ccc(CNC(=O)[C@@H]2C[C@@H](O)CN2C(=O)[C@@H](NC(=O)CCCNC(=O)c2ccc(-c3cnc(NCc4ccco4)n4cnnc34)cc2)C(C)(C)C)cc1

- Time [13]: 20 h
- Time [14]: 12 h
- IC50 [15]: 0.002 µM
- Time [16]: 24 h
- Cmax [17]: 12 µM
Structure (SMILES): CCCc1cc(C)[nH]c(=O)c1CNC(=O)c1cc(-c2ccc(N3CCN(C(C)C)CC3)nc2)cc2c1cnn2C(C)C

Structure (SMILES): Cc1ncccc1-c1cnc(NCc2c(F)ccc3c2CCO3)n2cnnc12
- inhibition in vivo at 30 mg/kg (CT26): 59%

- IC50 [18]: 0.045 µM
- concentration at 504 h [19]: 8 µM
Structure (SMILES): Cc1cc(C)c(CNC(=O)c2cc(-c3ccc(CN4CCOCC4)cc3)cc3c2cnn3C2CCCC2)c(=O)[nH]1

Structure (SMILES): CNC(=O)CCc1ccc(-c2cnc(NCc3c(F)ccc4c3CCO4)n3cnnc23)c(C)n1
- Drug uptake [5]: 0.34 pmol
- GI50 (KARPAS-422): 0.014 µM
- Drug uptake [7]: 0.19 pmol

- IC50 (Polycomb protein EED [20]): 14.8 µM
Structure (SMILES): COC(=O)[C@H](C)NC(=O)[C@H](Cc1ccccc1)NC(=O)[C@H](CCCC[N+](C)(C)C)NC(=O)[C@H](CCCNC(=N)N)NC(=O)[C@@H](N)CCC(N)=O (H-QR[Lys(Me3)]FA-OMe)
